Measurements as given in PubChem BioAssay AID248 (DTP/NCI, 2004).
Values joined by “and” are separate entries in the source; they are usually repeats but may differ in a detail not shown here. Equal entries are not always repeated. Toxic doses and inconclusive results are not listed. No stated cut-off is given here; in the data, active means T/C of 150% or more; inactive means T/C below 125%.

System: L1210 leukemia ip in BDF1 mice, survival T/C
Experiment: NCI In Vivo Anticancer Drug Screen. Data for tumor model L1210 Leukemia (intraperitoneal) in B6D2F1 (BDF1) mice
Settings: endpoint: mean survival time, higher = longer survival
Outline: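 Tumor cells were implanted, animals were treated, and survival was followed. The result divides the treated measurement by the vehicle-control measurement.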

[1] = dose: 18.8 mg/kg/injection, schedule: Q04DX003 (ip), vehicle: saline
[2] = dose: 37.5 mg/kg/injection, schedule: Q04DX003 (ip), vehicle: saline
[3] = dose: 75.0 mg/kg/injection, schedule: Q01DX001 (ip), vehicle: saline
[4] = dose: 75.0 mg/kg/injection, schedule: Q04DX003 (ip), vehicle: saline
[5] = dose: 25.0 mg/kg/injection, schedule: Q04DX003 (ip), vehicle: saline
[6] = dose: 50.0 mg/kg/injection, schedule: Q04DX003 (ip), vehicle: saline
[7] = dose: 200.0 mg/kg/injection, schedule: Q04DX003 (ip), vehicle: saline
[8] = dose: 400.0 mg/kg/injection, schedule: Q04DX003 (ip), vehicle: saline
[9] = dose: 50.0 mg/kg/injection, schedule: Q01DX009 (ip), vehicle: Klucel (hydroxypropylcellulose) (HPC)
[10] = dose: 100.0 mg/kg/injection, schedule: Q01DX009 (ip), vehicle: Klucel (hydroxypropylcellulose) (HPC)
[11] = dose: 200.0 mg/kg/injection, schedule: Q01DX009 (ip), vehicle: Klucel (hydroxypropylcellulose) (HPC)
[12] = dose: 200.0 mg/kg/injection, schedule: Q04DX003 (ip), vehicle: Klucel (hydroxypropylcellulose) (HPC)
[13] = dose: 100.0 mg/kg/injection, schedule: Q01DX001 (ip), vehicle: saline
[14] = dose: 100.0 mg/kg/injection, schedule: Q04DX002 (ip), vehicle: saline
[15] = dose: 200.0 mg/kg/injection, schedule: Q04DX002 (ip), vehicle: saline
[16] = dose: 400.0 mg/kg/injection, schedule: Q04DX002 (ip), vehicle: saline
[17] = dose: 100.0 mg/kg/injection, schedule: Q04DX003 (ip), vehicle: saline
[18] = dose: 50.0 mg/kg/injection, schedule: Q01DX001 (ip), vehicle: saline with Tween-80
[19] = dose: 200.0 mg/kg/injection, schedule: Q01DX001 (ip), vehicle: saline
[20] = dose: 400.0 mg/kg/injection, schedule: Q01DX001 (ip), vehicle: saline

Measured: T/C

Cc1nc(N=C(N)N)nc2ccc(Cl)cc12
inactive: [1] 96 % of control | [2] 105 % of control | [3] 101 % of control | [4] 100 % of control

O=C1NC(=O)C([N+](=O)[O-])C(=O)N1
inactive: dose: 12.5 mg/kg/injection, schedule: Q04DX003 (ip), vehicle: saline 104 % of control | [5] 95 % of control | [6] 93 % of control | [7] 98 % of control | [8] 91 % of control

Nc1nc(=S)c2[nH]c(N=Nc3ccc(S(N)(=O)=O)cc3)nc2[nH]1
active: dose: 50.0 mg/kg/injection, schedule: Q04DX003 (ip), vehicle: Klucel (hydroxypropylcellulose) (HPC) 151 % of control
inactive: [9] 97 % of control | [10] 100 % of control | [11] 100 % of control | [12] 94 % of control

On1nc(-c2ccccc2)c(-c2c(-c3ccccc3)nn(O)c2-c2ccccc2)c1-c1ccccc1
inactive: [9] 90 % of control | [10] 90 % of control | [11] 97 % of control

CC(C)=NN=C(C)C
inactive: dose: 12.5 mg/kg/injection, schedule: Q01DX001 (ip), vehicle: saline 101 % of control | dose: 12.5 mg/kg/injection, schedule: Q01DX009 (ip), vehicle: saline 101 % of control | dose: 25.0 mg/kg/injection, schedule: Q01DX001 (ip), vehicle: saline 99 % of control | dose: 25.0 mg/kg/injection, schedule: Q01DX009 (ip), vehicle: saline 100 % of control | [5] 100 % of control | dose: 50.0 mg/kg/injection, schedule: Q01DX001 (ip), vehicle: saline 111 % of control | [6] 102 % of control | [13] 110 % of control

O=C(O)COc1cc(OCC(=O)O)c([N+](=O)[O-])cc1[N+](=O)[O-]
inactive: dose: 100.0 mg/kg/injection, schedule: Q04DX003 (ip), vehicle: Klucel (hydroxypropylcellulose) (HPC) 102 % of control | [12] 102 % of control | dose: 400.0 mg/kg/injection, schedule: Q04DX003 (ip), vehicle: Klucel (hydroxypropylcellulose) (HPC) 91 % of control

C=CCSC1=NC(=O)C(CCCC)C(=O)N1C (configuration not stated)
inactive: [3] 88 % of control

O=C(/C=C/c1ccc2c(c1)OCO2)c1ccc(OCc2ccccc2)cc1
inactive: dose: 25.0 mg/kg/injection, schedule: Q04DX002 (ip), vehicle: saline 111 % of control | dose: 50.0 mg/kg/injection, schedule: Q04DX002 (ip), vehicle: saline 108 % of control | [14] 118 % of control | [15] 96 % of control | [16] 92 % of control

CC(C)CCC(CCC(C)C)NCC(C)OC(=O)c1ccc(N)cc1 (configuration not stated)
inactive: dose: 75.0 mg/kg/injection, schedule: Q01DX001 (ip), vehicle: carboxymethylcellulose (CMC) 93 % of control | dose: 150.0 mg/kg/injection, schedule: Q01DX001 (ip), vehicle: carboxymethylcellulose (CMC) 89 % of control

C#CCN(C)CCO
inactive: dose: 100.0 mg/kg/injection, schedule: Q04DX003 (ip), vehicle: saline with Tween-80 97 % of control | dose: 200.0 mg/kg/injection, schedule: Q04DX003 (ip), vehicle: saline with Tween-80 106 % of control | dose: 400.0 mg/kg/injection, schedule: Q04DX003 (ip), vehicle: saline with Tween-80 100 % of control

CC[n+]1c(C=Nc2ccc(N(C)C)cc2)sc2ccccc21
inactive: dose: 3.13 mg/kg/injection, schedule: Q04DX003 (ip), vehicle: carboxymethylcellulose (CMC) 107 % of control | dose: 6.25 mg/kg/injection, schedule: Q04DX003 (ip), vehicle: carboxymethylcellulose (CMC) 98 % of control | dose: 12.5 mg/kg/injection, schedule: Q04DX002 (ip), vehicle: carboxymethylcellulose (CMC) 104 % of control and 106 % of control | dose: 12.5 mg/kg/injection, schedule: Q04DX003 (ip), vehicle: carboxymethylcellulose (CMC) 96 % of control and 100 % of control | dose: 25.0 mg/kg/injection, schedule: Q04DX002 (ip), vehicle: carboxymethylcellulose (CMC) 109 % of control and 116 % of control

[CH3][Sb]1([Cl])[CH2]CCC[CH2]1
inactive: [6] 97 % of control | [17] 104 % of control | [7] 104 % of control

N=C(N)c1ccc(OCCCCOc2ccc(NC(=O)c3cccc(S(=O)(=O)F)c3)cc2)cc1
inactive: [18] 98 % of control | dose: 100.0 mg/kg/injection, schedule: Q01DX001 (ip), vehicle: saline with Tween-80 95 % of control | dose: 200.0 mg/kg/injection, schedule: Q01DX001 (ip), vehicle: saline with Tween-80 97 % of control

Cc1ccccc1Nc1ncnc2c1cnn2-c1ccccc1
inactive: [13] 102 % of control | [19] 105 % of control | [20] 115 % of control

O=C(O)c1ccccc1S(=O)O
inactive: dose: 50.0 mg/kg/injection, schedule: Q04DX002 (ip), vehicle: other 119 % of control | dose: 100.0 mg/kg/injection, schedule: Q04DX002 (ip), vehicle: other 122 % of control | dose: 200.0 mg/kg/injection, schedule: Q04DX002 (ip), vehicle: Klucel (hydroxypropylcellulose) (HPC) 89 % of control | dose: 200.0 mg/kg/injection, schedule: Q04DX002 (ip), vehicle: other 91 % of control | dose: 400.0 mg/kg/injection, schedule: Q04DX002 (ip), vehicle: Klucel (hydroxypropylcellulose) (HPC) 103 % of control

CC1(C)N=C(N)N=C(N)N1CCc1ccccc1
inactive: dose: 25.0 mg/kg/injection, schedule: Q01DX001 (ip), vehicle: saline with Tween-80 101 % of control | [18] 104 % of control

COC(=O)c1ccccc1Cn1ccnc1
inactive: [13] 108 % of control | dose: 100.0 mg/kg/injection, schedule: Q01DX009 (ip), vehicle: saline 102 % of control and 92 % of control | [14] 96 % of control and 103 % of control | [17] 115 % of control | [19] 101 % of control | dose: 200.0 mg/kg/injection, schedule: Q01DX009 (ip), vehicle: saline 94 % of control and 97 % of control | [15] 103 % of control and 105 % of control | [7] 101 % of control | [20] 97 % of control | [16] 100 % of control

CCOC(=O)C/C(=C/c1ccco1)C(=O)OCC
inactive: [13] 86 % of control | [17] 89 % of control | [19] 92 % of control | [7] 96 % of control | [20] 89 % of control | [8] 89 % of control

CCCCCCCCCCCC[Si](CCCCCCCCCCCC)(c1ccccc1)c1ccccc1
inactive: dose: 100.0 mg/kg/injection, schedule: Q01DX009 (ip), vehicle: saline with Tween-80 91 % of control | dose: 200.0 mg/kg/injection, schedule: Q01DX009 (ip), vehicle: saline with Tween-80 93 % of control | dose: 400.0 mg/kg/injection, schedule: Q01DX009 (ip), vehicle: saline with Tween-80 96 % of control

CNC1CC2CCC1(C)C2(C)C (configuration not stated)
inactive: [14] 96 % of control

O=C(c1ccc(C(=O)N2CC2)cc1)N1CC1
inactive: dose: 5.0 mg/kg/injection, schedule: Q04DX003 (ip), vehicle: carboxymethylcellulose (CMC) 106 % of control | dose: 10.0 mg/kg/injection, schedule: Q04DX003 (ip), vehicle: carboxymethylcellulose (CMC) 97 % of control | dose: 20.0 mg/kg/injection, schedule: Q01DX001 (ip), vehicle: carboxymethylcellulose (CMC) 103 % of control | dose: 20.0 mg/kg/injection, schedule: Q04DX003 (ip), vehicle: carboxymethylcellulose (CMC) 94 % of control

CCOC(=O)/C(C#N)=N/O
inactive: dose: 18.8 mg/kg/injection, schedule: Q01DX009 (ip), vehicle: saline 94 % of control | [1] 95 % of control | dose: 37.5 mg/kg/injection, schedule: Q01DX009 (ip), vehicle: saline 91 % of control | [2] 97 % of control | [4] 97 % of control

O=C1c2cc(Br)ccc2-c2c(N=Cc3ccc4c(c3)OCO4)cc(Br)cc21
inactive: dose: 100.0 mg/kg/injection, schedule: Q01DX001 (ip), vehicle: other 95 % of control | dose: 200.0 mg/kg/injection, schedule: Q01DX001 (ip), vehicle: other 103 % of control | dose: 400.0 mg/kg/injection, schedule: Q01DX001 (ip), vehicle: other 106 % of control
